Entries after “also recorded” stand apart in the source; their conditions may differ. Read-outs that look alike come from different tables or passages of the source.
Experiments:
NOD2 [1] = assay: MDP-stimulated IL-8 release in 293/hNOD2 cells (HTRF); type: cell-based, human; conditions: for IC50: Homo sapiens
Description: (§1) After 24 hours the amount of IL-8 secreted into the medium was determined by homogeneous time resolved fluorescence (HTRF) assay by the direct addition of a 1:1 mix of europium cryptate and XL665-conjugated anti-IL-8 antibodies according to the manufacturer's instructions (Cisbio).

300 human kinases = assay: Kinase panel profiling (Reaction Biology Corp); type: biochemical; conditions: compound at 1 μM; 10 μM ATP; any kinase of the panel
Description: The original hit compound identified as a selective inhibitor of the NOD2 pathway was profiled for inhibitory activity against 300 human kinases (Reaction Biology Corp). The compound was tested in duplicate at a single concentration (1 μM) and was pre-incubated with enzyme for 20 minutes prior to addition of 10 μM ATP.

HCT116 cells = assay: Uptake of MDP-rhodamine by HCT116 cells (fluorescence microscopy); type: cell-based, human; conditions: GSK669 up to 20 μM, chlorpromazine 20 μM, 1–4 hour
Description: HCT116 cells seeded onto glass cover-slips at low density were pre-treated with GSK669 or the endocytosis inhibitor chlorpromazine for 30 minutes before addition of 2.5 μg/mL MDP-rhodamine. Live cells were viewed periodically over 6-hours incubation at 37 °C using a Nikon eclipse TE2000-E fluorescent inverted microscope fitted with a CCTV camera and rhodamine filter.

NOD2 [2] = assay: MDP-stimulated IL-8 secretion in NOD2 BacMam transduced HEK293T cells; type: cell-based, human
Description: Over-expression of NOD1 and NOD2 was achieved by transduction of HEK293T cells with either NOD1 or NOD2 BacMam recombinant baculoviruses. […] The effect of compounds on activator-independent NOD1/2 signaling was determined by 30 minute pre-treatment of cells (in 96-well plates seeded the previous day in DMEM high glucose with 10% FBS at 60,000 cells/well) followed by infection with NOD1 or NOD2 BacMam virus (MOI = 50). IL-8 was measured in conditioned medium after 24 hour incubation at 37 °C. To determine the effect of compounds on NOD1/2 activator-dependent IL-8 secretion in BacMam transduced HEK293T, the cells were infected with virus for 6 hours (MOI = 50), and following the removal of virus the cells were cultured over-night. The next day medium was again replaced and cells pre-treated with compound for 30 minutes followed by stimulation with either MDP (30 ng/mL) or iE-DAP (300 ng/mL). IL-8 was measured in conditioned medium by HTRF after 24-hour incubation at 37 °C.

NOD2 [3] = assay: ssRNA-induced IFNβ gene expression in 293/hNOD2 cells (real-time RT-PCR); type: cell-based, human; conditions: GSK669 0.16–16 μM, RIP2 inhibitor 0.1 μM, mRNA after 6 hours
Description: Cells seeded in 96-well plates at sub-confluent density (60,000/well) in DMEM + 1% FBS were transfected for 6 hours with ssRNA40 (1.25–6.67 μg/mL) using lipofectamine 2000 (Invitrogen) and RNA/liposome complexes prepared in Opti-MEM1 medium (Invitrogen). Induction of IFNβ gene expression was measured by real-time reverse transcription PCR (Taqman). RNA was isolated from cell extracts in Trizol (Invitrogen) using the RNeasy kit (Qiagen), and mRNA quantified following reverse transcription and PCR amplification using Taqman reverse transcription and Taqman PCR core reagent kits, pre-formulated primer/probe mixes and ABI 7900 sequence detection system (Applied Biosystems). Expression of IFNβ (ABI primer/probe mix Hs01077958_s1) was normalized to 18S ribosomal RNA.

TLR2 = assay: Pam2CSK4-stimulated IL-8 release in 293/hTLR2 cells; type: cell-based, human; conditions: read-out: IC50 293/hTLR2 Pam2CSK4, IL-8 end-point, 3–10 ng/mL Pam2CSK4
Description: as §1

NOD2 [4] = assay: MDP-stimulated IL-8 release in HCT116 cells (endogenous NOD2); type: cell-based, human
Description: Compound activity on endogenous NOD1 and NOD2 receptors was determined by inhibition of either Tri-DAP or MDP-stimulated IL-8 release, respectively, using HCT116 human colon carcinoma cells. […] The cells were maintained in DMEM high glucose medium supplemented with 25 mM HEPES and 10% FBS. For assay, cells were seeded into 96 well plates (90,000 cells/well) in DMEM containing 1% FBS and pre-incubated with compounds for 1 hour before addition of either 1 μg/mL MDP or 25 μg/mL Tri-DAP. The level of IL-8 released into medium after 24-hour incubation was determined by HTRF assay as described above and fluorescence measured on an Envision model 2102 multilabel plate reader (Perkin Elmer).

NOD1 [5] = assay: Western blot of MAPK phosphorylation and IκBα in Tri-DAP-stimulated 293/hNOD1 cells; type: cell-based, human; conditions: GSK669 up to 30 μM
Description: Confluent cultures of 293/-hNOD1 and -hNOD2 cells in 24-well plates were serum-starved over-night. The next day, cells were pre-incubated for 1 hour with compound and then stimulated for 1 hour with either 50 μg/mL Tri-DAP or 25 μg/mL MDP, respectively. Whole cell lysates were prepared in 1X cell lysis buffer (Cell Signaling Technology) containing additional inhibitors of aspartic, cysteine and serine proteases and aminopeptidases (protease inhibitor cocktail set III, EMD Biosciences) and inhibitors of multiple phosphatases (phosphatase inhibitor cocktail sets II and III, Sigma-Aldrich). The levels of phosphorylated and total p38, JNK, ERK1/2 and total IκBα were determined by immunoblotting of ∼20 μg protein per sample using the following primary antibodies: phospho-p38 MAPK (12F8, #4631), p38 MAPK (#9212), phospho-JNK (#9251), JNK (#9252) and IκBα (#9242) all purchased from Cell Signaling Technology, and phospho-ERK1/2 (sc-7383) and ERK1/2 (sc-94) antibodies from Santa Cruz Biotechnology.

NOD1 [6] = assay: iE-DAP-stimulated IL-8 release in 293/hNOD1 cells (HTRF); type: cell-based, human; conditions: 60 ng/mL iE-DAP
Description: as §1

O=C(Cn1c(CCNC(=O)c2ccccc2)nc2ccccc21)Nc1ccc2c(c1)CCC2 [Compound 1, N-(2-(1-(2-((2,3-dihydro-1H-inden-5-yl)amino)-2-oxoethyl)-1H-benzo[d]imidazol-2-yl)ethyl)benzamide]
IC50 (NOD2 [1]; read-out: IC50 293/hNOD2 MDP): 3.2 µM | IC50 (NOD2 [1]; MDP-stimulated IL-8 production assay in 293/hNOD2 cells, Figures 4 and 5, read-out: NOD2 IC50): 3.3 ± 1.6 µM | fold less active in the selectivity assays than on the NOD2 pathway (NOD2 [1]; all selectivity assays vs NOD2 IC50): at least 10 fold | inhibition of kinase activity, panel of 300 human kinases (300 human kinases): ≤ 50% | effect on uptake of Rhodamine-MDP into cells (HCT116 cells): unaffected; also recorded: does not block cellular uptake of MDP | effect on MDP response in NOD2 transduced cells, single concentration (NOD2 [2]; HEK293T, 6 hours virus then MDP 30 ng/mL, GSK669 5 μM, IKK inhibitor 0.5 μM): selectively blocked the MDP response | IC50 (NOD2 [2]; Homo sapiens, HEK-293T, 6 hours transduction, then MDP 30 ng/mL 24 hours, IL-8, read-out: IC50, MDP response in NOD2 transduced HEK293T cells): 0.5 µM | effect on ssRNA-induced IFNβ expression (NOD2 [3]): unaffected; also recorded: did not block | IC50 (TLR2; listed as GSK669): > 30 µM | IC50 (TLR2; listed as GSK669 (1)): > 80 µM | IC50 (NOD2 [4]; Homo sapiens, HCT-116, IL-8 end-point, 1 μg/mL MDP): 0.5 ± 0.2 µM | effect on IL-8 secretion induced by MDP in HCT116 cells (NOD2 [4]; MDP 1 μg/mL, 1 hour pre-treatment): dose-dependently inhibited | effect on Tri-DAP-induced p-p38, p-JNK and total IκBα (NOD1 [5]): inactive | IC50 (NOD1 [6]; Homo sapiens, read-out: IC50 293/hNOD1 iE-DAP, IL-8 end-point): > 30 µM | IC50 (NOD1 [6]; read-out: IC50 293/hNOD1 iE-DAP, IL-8 end-point, listed as GSK669 (1)): > 50 µM

Source: article PMC3731320, “Identification of Benzimidazole Diamides as Selective Inhibitors of the Nucleotide-Binding Oligomerization Domain 2 (NOD2) Signaling Pathway” (PLoS ONE, 2013)
